Assay [1] can be described thus: Inhibitory activity against type A neuraminidase (N2). Further details: species or system unidentified influenza virus.
The nature of assay [2]: Inhibitory activity against type A neuraminidase (N9). More on the design: species or system unidentified influenza virus.

With `C=C(C)NC(C(CC)CC)[C@@H]1[C@H](O)[C@@H](C(=O)O)C[C@H]1N=C(N)N` (some centres not stated), the “Log IC50” value in assay [1] and in assay [2] was -10 each time.

These data come from ChEMBL document CHEMBL1134378 (J Med Chem, 2001).
